Entries after “also recorded” stand apart in the source; their conditions may differ. Marks after values point to notes of the source that are not given here.
System: intestinal adenomas in Min mice (Apc^min/Apc^+)
Assay: Intestinal tumorigenesis in Min mice fed treatment diets for 10 weeks (adenoma number and size)
Assay type: in vivo
Details: for Adenoma numbers in the small intestine, Distal / Adenoma numbers in the small intestine, Middle / Adenoma numbers in the small intestine, Proximal / Total Adenoma Diameter in the small intestine / Adenoma numbers in the small intestine, Total: 800 ppm anthocyanins; for Adenoma numbers in the small intestine, Distal / Adenoma numbers in the small intestine, Middle / Adenoma numbers in the small intestine, Proximal / Total Adenoma Diameter in the small intestine: 200 ppm cyanidin or 200 ppm sulindac in drinking water, or 20% cherries diet; for Adenoma numbers in the small intestine, Distal / Adenoma numbers in the small intestine, Middle / Adenoma numbers in the small intestine, Proximal / Total Adenoma Diameter in the small intestine / Adenoma numbers in the small intestine, Total / Colon Total adenoma Volume / Cecal Total adenoma Volume / Cecum adenoma Number / Colon adenoma Number / Mean Adenoma Diameter in the small intestine / Average number of solid tumors, Cecum / Average number of solid tumors, Colon / Average number of solid tumors, Total (cecum and colon): mean ± SEM; for Adenoma numbers in the small intestine, Total: 200 ppm cyanidin or 200 ppm sulindac in drinking water, or 20% freeze-dried cherries in diet; for Colon Total adenoma Volume / Cecal Total adenoma Volume / Cecum adenoma Number / Colon adenoma Number / Mean Adenoma Diameter in the small intestine / Average number of solid tumors, Cecum / Average number of solid tumors, Colon / Average number of solid tumors, Total (cecum and colon): same treatments; for Cecal Total adenoma Volume / Cecum adenoma Number / Colon adenoma Number / Mean Adenoma Diameter in the small intestine: different superscripts = significant differences (P < 0.05); for Average number of solid tumors, Cecum / Average number of solid tumors, Colon / Average number of solid tumors, Total (cecum and colon): three-dimensional raised tumors
Text: Forty-eight Min mice were randomly assigned to five treatment groups at 4-5 weeks of age and fed treatment diets for 10 weeks. The treatments were:
1) Modified AIN-93G control diet, 2) The control diet +800 ppm anthocyanins in drinking water, 3) The control diet+200 ppm cyanidin in drinking water, 4) The control diet+200 ppm sulindac in drinking water, 5) Modified control diet containing 20% freeze dried pitted tart cherries. Only mean diameter, not the number of adenomas in the small intestine was reduced by sulindac, whereas diameter was increased by cherry diet (p<0.05).
All research was conducted with approval of the Michigan State University, East Lansing, Mich., All-University Committee on animal use and care. Mice were housed in MSU Laboratory, Animal Resources maintained facilities. A colony of Min mice was maintained by crossing male Min mice (Apc^min/Apc^+) with normal adult C57BL/6J female mice. Mice were housed in a temperature and humidity-controlled room (20-22° C., 70%) with a 12-h light/dark cycle. At three weeks of age, mice were bled from the dorsal pedal vein (30 μL) for genotyping analysis to identify Apc^min/Apc^+ using polymerase chain reaction (PCR) analysis and subsequent gel electrophoresis analysis. Forty-eight Min mice identified were randomly assigned to five treatment groups (7 to 11 per treatment) at 4 or 5 weeks of age and fed treatment diets for 10 weeks. The treatments were:
1) Modified AIN-93G control diet and 50 ppm ascorbic acid in drinking water (n=11)
2) The control diet+50 ppm ascorbic acid and 800 ppm anthocyanins in drinking water (n=9)
3) The control diet+50 ppm ascorbic acid and 200 ppm cyanidin in drinking water (n=7)
4) The control diet+50 ppm ascorbic acid and 200 ppm sulindac in drinking water (n=10)
5) 20% freeze-dried cherries+50 ppm ascorbic acid in drinking water (n=11).
Ingredient composition of diets is in Table 1. All diets contained 22% protein, 15% fat (soybean oil) and 5% cellulose contents. Distilled water was used for drinking water. Ascorbic acid was added to provide low pH for keeping anthocyanins and cyanidin in solution since they are stable only under pH 7. The concentration of sulindac (200 ppm) was based on the effective range found from most studies that have shown sulindac to reduce intestinal neoplasia. Cyanidin concentration (200 ppm) was matched to that of sulindac. Anthocyanins was tested at the level four times the cyanidin concentration because anthocyanins are the glycosylated cyanidin and the level (800 ppm) has equivalent amount of flavylium cation. Red tart pitted cherries (Peerson Farms, Inc., Shelby, Mich.) were frozen, freeze-dried, ground using plate grinder, and then screened to pass a 1 mm screen before they were incorporated into the diet at the expense of sucrose, cornstarch and dyetrose. One hundred grams of the experimental diet included 23 g of ground cherries to make 20% of cherries in the diet because dry matter of cherries was 75%, whereas that of AIN-93G diet was 91%.
Body weight was measured once a week until mice were sacrificed at the end of treatment period. Upon sacrifice by carbon dioxide asphyxiation, the liver was removed and frozen immediately for confirmatory PCR analysis. The entire small intestine, cecum, and colon were removed from each mouse to determine the number and size of adenomas. The tissues were separated into the following sections: proximal one-third of small intestine, middle one-third of small intestine, distal one-third of small intestine, cecum, and colon. All intestinal sections were opened longitudinally, rinsed thoroughly with water, fixed overnight in 10% neutral-buffered formalin, and then stained with 0.2% methylene blue. Tumor number and size (diameter for flat tumors or volume in the case of three-dimensional tumors) were determined in each intestinal segment on 1 mm grid transparency by direct counting with the aid of a dissecting microscope. […]

| Structure (SMILES) | Adenoma numbers in the small intestine, Distal | Adenoma numbers in the small intestine, Middle | Adenoma numbers in the small intestine, Proximal | Total Adenoma Diameter in the small intestine | Adenoma numbers in the small intestine, Total | Colon Total adenoma Volume | Cecal Total adenoma Volume | Cecum adenoma Number | Colon adenoma Number | Mean Adenoma Diameter in the small intestine | Average number of solid tumors, Cecum | Average number of solid tumors, Colon | Average number of solid tumors, Total (cecum and colon) | Intestinal site of inhibited tumorigenesis (conclusion in words) | Number of cecal adenomas compared to controls (in words) | Size (volume) of adenomas in the cecum (in words) | Trend in number of adenoma in the proximal section of the small intestine (in words) (P=0.05) | Number of colonic adenomas (in words) (p<0.05) | Mean diameter (size) of adenoma in the small intestine, effect compared to control diet (in words) (p<0.05, listed as sulindac) | Number of colonic adenomas (in words) (p<0.05, listed as sulindac) |
| --- | --- | --- | --- | --- | --- | --- | --- | --- | --- | --- | --- | --- | --- | --- | --- | --- | --- | --- | --- | --- |
| Oc1cc(O)c2cc(O)c(-c3ccc(O)c(O)c3)[o+]c2c1 [Cyanidin] | 20.0 ± 7.8 | 15.7 ± 5.8 | 15.6 ± 3.5 | 67.4 ± 22.0 mm | 51.3 ± 15.8 | 3.51 ± 2.24 mm^3 | 0.56 ± 0.96^b mm^3 | 0.57 ± 0.63^b | 3.71 ± 0.80^ab | 1.25 ± 0.11^b mm | 0.00 ± 0.13 | 0.14 ± 0.21 | 0.14 ± 0.25 |  |  |  |  |  |  |  |
| CC1=C(CC(=O)O)c2cc(F)ccc2/C1=C\c1ccc([S+](C)[O-])cc1 (stereo not drawn) [Sulindac, sulindac] | 10.0 ± 6.5 | 9.1 ± 4.9 | 5.6 ± 2.9 | 23.5 ± 18.4 mm | 24.7 ± 13.2 | 3.35 ± 1.88 mm^3 | 4.00 ± 0.81^a mm^3 | 4.00 ± 0.53^c | 5.30 ± 0.67^b | 0.93 ± 0.10^a mm | 0.20 ± 0.11 | 0.20 ± 0.17 | 0.40 ± 0.21 | inhibits small intestinal tumorigenesis | significantly more cecal adenomas than controls; also recorded: significantly higher number of cecal adenomas; also recorded: increased the number of adenomas in cecum and colon | increased | reduced | twice as many adenomas as those of mice in cherry diet | significantly reduced the size of adenomas in small intestine | greatest number of colonic adenomas; also recorded: increased the number of adenomas in cecum and colon |
